Reference: patent publication US5750362A, “Methods for identifying substances with a potential herbicidal or growth-regulating action by means of plant transporter proteins, the use of the transporter proteins, and substances with a herbicidal and growth-regulating action” (BASF Aktiengesellschaft, priority 1993, dated 1998)
Where two headings read alike, the source gives them in different places.

What was measured:
[1] = target: T1, ammonium transporter AMT1 (Arabidopsis thaliana, UniProt P54144); experiment: cell-based
T1 construct: expressed in transfected cells; host or cells: Saccharomyces cerevisiae 26972c (mutations in MEP1 and MEP2)
T1 sequence (P54144 1-501): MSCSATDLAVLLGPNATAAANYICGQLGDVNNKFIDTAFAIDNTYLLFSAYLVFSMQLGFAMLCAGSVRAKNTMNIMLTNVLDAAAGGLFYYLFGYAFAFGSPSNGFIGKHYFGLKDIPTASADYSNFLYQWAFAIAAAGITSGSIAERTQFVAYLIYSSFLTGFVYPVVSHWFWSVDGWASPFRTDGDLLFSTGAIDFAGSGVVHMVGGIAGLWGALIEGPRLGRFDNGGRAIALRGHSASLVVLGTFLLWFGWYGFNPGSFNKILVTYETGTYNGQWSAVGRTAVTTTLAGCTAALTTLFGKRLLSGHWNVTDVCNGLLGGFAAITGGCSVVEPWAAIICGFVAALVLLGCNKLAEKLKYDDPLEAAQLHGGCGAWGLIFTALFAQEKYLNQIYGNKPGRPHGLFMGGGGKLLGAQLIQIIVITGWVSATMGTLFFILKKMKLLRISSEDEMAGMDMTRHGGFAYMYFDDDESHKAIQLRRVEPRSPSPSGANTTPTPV
Procedure: The measurements of transport identify inhibitors of plant ammonium transporters are carried out with the structural analog methylamine because radiolabeled ammonium is not commercially obtainable.
The yeast cells are transformed by standard methods with cDNA sequences which code for an ammonium transporter from plants and which permit expression of a functional transporter in the yeast cells. […] The cells are cultured in NAAG-medium (2% glucose, 1.7 g/l yeast nitrogen-base w/o amino acids and ammonium sulfate (Difco), supplemented with 500 μg/ml L-proline) at 28 degrees Celsius, and harvested in the logarithmic phase (OD660.=0.6). The cells are then spun down in a centrifuge at 4000 rpm and 4 degrees Celsius for 10 minutes, washed twice with 20 mM sodium phosphate buffer, pH 7, and taken up in the same buffer to an 0D660 of 8. 200 μl aliquot fractions of the cell suspension are taken. 5 minutes before the actual measurement,the yeasts are activated by addition of 100 mM glucose and incubated at 30 degrees Celsius. To start the reaction, 100 μl of the cell suspension are added to 100 µl of reaction mixture (20 mM Na phosphate buffer, pH7; 18.5 kBq of [^14 C]-methylamine (NEN); 100 M methylamine; substance to be tested depending on the experiment (see FIG. 4)). In each case 10, 60, 120 and 180 seconds after starting the reaction, 50 μl aliquots are taken, added to 4 ml of ice-cold 5 mM methylamine solution and filtered on glass fibre filters. After the filters have been washed with a further 8 ml of a methylamine solution, the radioactivity on the filters is subsequently determined in a liquid scintillation counter. Inhibitors are added 60 seconds before adding the glucose.
The uptake of radiolabeled methylamine without addition of a potential inhibitor is determined as one control.

[2] = system: plants; experiment: Herbicidal activity on plants; format: in vivo; conditions: whole plants; result in words
[3] = target: T2, amino-acid transporter AAP2 (Arabidopsis thaliana, UniProt Q38967); experiment: Uptake of radiolabeled L-proline by yeast mutant 22457d-AAP2 expressing the plant amino-acid transporter; format: cell-based; conditions: read-out: Activity relative to control [%]
T2 construct: expressed in transfected cells; host or cells: Saccharomyces cerevisiae mutant 22574d (also printed 22457d)
T2 sequence (Q38967 1-493): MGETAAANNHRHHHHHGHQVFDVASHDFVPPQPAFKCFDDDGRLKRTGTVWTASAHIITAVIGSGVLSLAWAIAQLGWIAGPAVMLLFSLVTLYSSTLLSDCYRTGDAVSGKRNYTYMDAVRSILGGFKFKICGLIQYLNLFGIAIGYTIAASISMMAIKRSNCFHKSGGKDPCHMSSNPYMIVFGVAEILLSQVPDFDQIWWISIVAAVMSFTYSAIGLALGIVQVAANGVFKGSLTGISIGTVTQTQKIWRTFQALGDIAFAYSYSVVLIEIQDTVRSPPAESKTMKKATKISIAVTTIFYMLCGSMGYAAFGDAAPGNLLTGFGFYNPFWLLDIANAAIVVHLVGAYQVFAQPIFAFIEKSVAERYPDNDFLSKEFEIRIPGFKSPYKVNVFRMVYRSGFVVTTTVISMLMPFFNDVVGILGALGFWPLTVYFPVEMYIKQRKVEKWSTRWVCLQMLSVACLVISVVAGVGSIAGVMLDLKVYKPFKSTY
Procedure: Transporter investigations are carried out on the yeast mutant 22574d (Jauniaux & Grenson, Eur. J. Biochem. 190: 39-44, 1990), which harbors a mutation in the gene for amino-acid permease, and on the yeast mutant JT 16 (Tanaka and Fink, Gene 38: 205-214, 1985) which is incapable of histidine uptake, for identification of inhibitors of plant amino-acid transporters. These mutants are transformed with cDNA sequences which code for plant amino-acid transporters and lead to expression of functional transporters in the yeast cells. The cDNA sequences are cDNA sequences which code for the amino-acid transporters AAP1 and AAP2 from Arabidopsis thaliana (Frommer et al., 1993, Proc. Natl. Acad. Sci. USA 90: 5944-5948; Kwart et al., 1993, Plant J. 4:993-1002). For the measurements, cells of these mutants are cultured in minimal medium (NAAG+5 mmol/l proline) at 28° C. and harvested in the logarithmic phase (OD600 =0.6). The cells are spun down in a centrifuge at 4000 rpm and 4 degrees Celsius for 10 minutes and washed 2× with AUB buffer (modified AAB buffer, Ljungdahl et al.). The cell concentration is adjusted to an OD600 of 25 in AUB buffer.
100 μl portions of the cell suspension are mixed with 100 μl of a 1 mmol/l L-proline solution (18.5 kBq of L-[14C]-proline) and various concentrations of the appropriate substance to be investigated. After 20, 60, 120 and 180 seconds, a 50 μl aliquot is removed, diluted in 4 ml -of ice-cold AUB buffer and filtered through glass fever [sic] filter. In order to remove nonspecifically bound L-[14C]-proline, the cells are washed 2× with 4 ml of ice-cold water each time. The radioactivity retained on the glass filter is then measured in a liquid scintillation counter. The radioactivity reflects the amount of radiolabeled proline taken up by the cells. Uptake of radiolabeled proline without addition of a potential inhibitor is determined as one control. Cells of each of the mutants 22574d and JY 16 which have not been transformed with cDNA sequences coding for plant amino-acid transporters are used as further control. Results of measurements of this type on the mutants 22457d-AAP2 which expresses the amino-acid transporter AAP2 from Arabisopsis [sic] thaliana are shown in the following table.
For the investigations, yeast cells of the strain 22457d were transformed with a cDNA sequence which codes for the amino-acid transporter AAP2, and the uptake of radiolabeled proline in the presence of various substances was determined. The various substances tested, their concentration, and the activity of the transporter, shown as percentage activity of the control with which no potential inhibitors were added, are indicated.

[4] = target: T3, sucrose transporter P62 (StSUT1) (Solanum tuberosum, UniProt Q43653); experiment: [14C]-sucrose uptake by yeast strain SUSY-7-P62 (StSUT1) expressing the potato sucrose transporter; format: cell-based
T3 construct: whole-cell [14C]-sucrose uptake; no tag or borders given
T3 sequence (Q43653 1-516): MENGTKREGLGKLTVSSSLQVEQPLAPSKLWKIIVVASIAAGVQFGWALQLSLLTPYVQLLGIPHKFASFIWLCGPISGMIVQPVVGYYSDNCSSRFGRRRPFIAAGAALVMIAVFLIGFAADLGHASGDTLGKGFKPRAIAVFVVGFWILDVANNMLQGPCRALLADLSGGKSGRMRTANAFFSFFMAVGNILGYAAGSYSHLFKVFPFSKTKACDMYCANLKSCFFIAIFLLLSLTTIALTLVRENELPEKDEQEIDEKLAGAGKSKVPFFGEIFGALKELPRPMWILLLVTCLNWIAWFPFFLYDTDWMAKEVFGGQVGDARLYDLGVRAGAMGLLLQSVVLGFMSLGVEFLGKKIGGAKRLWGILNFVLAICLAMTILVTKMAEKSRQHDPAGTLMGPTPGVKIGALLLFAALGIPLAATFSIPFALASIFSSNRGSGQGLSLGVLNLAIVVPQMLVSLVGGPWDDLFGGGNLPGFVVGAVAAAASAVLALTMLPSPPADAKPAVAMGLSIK
Excerpt: Yeast cells of the strain SUSY7 (Riesmeier et al., 1992, EMBO J. 11: 4705-4713) are used to identify substances which have an inhibitory effect on sucrose transporters from potato. Cells of this strain are transformed with a cDNA sequence which codes for the sucrose transporter P62 (StSUT1) from potato (WO 94/00574, Riesmeier et al., 1993, Plant Cell 5:1591-1598) and which ensures expression of a functional transporter in the cells. The resulting yeast strain was called SUSY-7-P62 (StSUT1). The yeast cells are cultured in minimal medium (SD +2% (w/v) sucrose, pH 3.8) at 28° C. and harvested in the logarithmic phase (OD600 =0.6). The cells are spun down at 4000 rpm for 10 minutes and washed twice with SD medium. A cell concentration of c=50 g/l in SD medium is adjusted according to the wet weight of the cells, and 200 Al aliquot fractions are taken. Before the actual reaction, the cells are incubated in 10 mM glucose for 5 min and adjusted to pH 3.8 with MES buffer. The reaction is started by adding 200 Al of a 0.2 mmol/l [14C]-sucrose solution (3 mCi/mmol) in SD medium (pH 3.8). After 20, 60, 120, 180 and 240 seconds, 70 μl portions of the suspension are removed and pipetted into 4 ml of ice-cold water in order to stop the reaction. The cells are filtered off on glass fiber filters and washed twice with ice-cold water. The radioactivity on the filters is subsequently determined in a liquid scintillation counter. The substances to be tested are added 30 seconds before addition of the sucrose. The uptake of radiolabeled sucrose without addition of a potential inhibitor is determined as one control. Cells of the strain SUSY7 which are not transformed with cDNA sequences coding for a sucrose transporter from potato are employed as further control.
The various tested substances, their concentration and the activity of the transporter, shown as percentage activity of the control in which no potential inhibitors were added, are indicated.

[5] = target: T4, sucrose transporter S21 (SoSUT1) (Spinacia oleracea, UniProt Q03411); experiment: [14C]-sucrose uptake by yeast strain SUSY7 expressing the spinach sucrose transporter; format: cell-based; conditions: [14C]-sucrose uptake, pH 3.8; tested substance 0.1 mM
T4 construct: expressed in transfected cells; host or cells: Saccharomyces cerevisiae SUSY7
T4 sequence (Q03411 1-525): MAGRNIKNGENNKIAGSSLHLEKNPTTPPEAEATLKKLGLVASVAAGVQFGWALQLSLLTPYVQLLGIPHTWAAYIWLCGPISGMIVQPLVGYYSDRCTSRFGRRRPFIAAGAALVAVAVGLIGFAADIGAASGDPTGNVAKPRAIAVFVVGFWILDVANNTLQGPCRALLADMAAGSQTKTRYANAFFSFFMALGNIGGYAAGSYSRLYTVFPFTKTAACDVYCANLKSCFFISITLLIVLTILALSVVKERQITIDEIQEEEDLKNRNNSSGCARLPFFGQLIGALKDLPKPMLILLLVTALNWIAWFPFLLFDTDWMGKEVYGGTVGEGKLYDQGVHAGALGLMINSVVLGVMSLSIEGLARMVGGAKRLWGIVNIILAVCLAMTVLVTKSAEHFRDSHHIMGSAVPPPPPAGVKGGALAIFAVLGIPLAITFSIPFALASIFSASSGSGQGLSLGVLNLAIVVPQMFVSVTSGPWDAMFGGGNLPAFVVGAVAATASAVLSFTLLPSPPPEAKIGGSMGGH
Procedure: Yeast cells of the strain SUSY7 (Riesmeier et al., 1992, EMBO J. 11: 4705-4713) are used to identify substances which have an inhibitory effect on sucrose transporters from spinach. Cells of this strain are transformed with a cDNA sequence which codes for the sucrose transporter S21 (SoSUT1) from spinach and which ensures expression of a functional transporter in the cells. The yeast cells are cultured in minimal medium (SD+2% (w/v) sucrose, pH 3.8) at 28° C. and harvested in the logarithmic phase (OD600 =0.6). The cells are spun down at 4000 rpm for 10 minutes and washed twice with SD medium. A cell concentration of c=50 g/l in SD medium is adjusted according to the wet weight of the cells, and 200 μl aliquot fractions are taken. Before the actual reaction, the cells are incubated in 10 mM glucose for 5 min and adjusted to pH 3.8 with MES buffer. The reaction is started by adding 200 μl of a 0.2 mmol/l [14C]-sucrose solution (3 mCi/mmol) in SD medium (pH 3.8). After 20, 60, 120, 180 and 240 seconds, 70 μl portions of the suspension are removed and pipetted into 4 ml of ice-cold water in order to stop the reaction. The cells are filtered off on glass fiber filters and washed twice with ice-cold water. The radioactivity on the filters is subsequently determined in a liquid scintillation counter. The substances to be tested are added 30 seconds before addition of the sucrose. The uptake of radiolabeled sucrose without addition of a potential inhibitor is determined as one control. Cells of the strain SUSY7 which are not transformed with cDNA sequences coding for a sucrose transporter from spinach are employed as further control.
The various tested substances, their concentration and the activity of the transporter, shown as percentage activity of the control in which no potential inhibitors were added, are indicated. Substances which specifically show an inhibitory effect on the sucrose transporter S21 (SoSUT1), are tested for their herbicidal and growth-regulating effect on whole plants.

[6] = system: sucrose transporters; conditions: Bush, 1989, Plant Physiol. 89: 1318-1323; result in words; cited from earlier work
[7] = system: sucrose transporter P62 (StSUT1); experiment: Activation of sucrose transport by preincubation of the yeast cells; format: cell-based, Solanum tuberosum
Procedure: The transport of sucrose by the sucrose transporter P62 (StSUT1) from Solanum tuberosum can be increased by previous energizing of the yeast cells by incubation in glucose, stachyose and adenine. The same increase in transport activity is achieved by reducing the pH to pH 3.8 in the measurement. The measurement of transport to determine the activation takes place as described in Example 3 but the cells are incubated before the actual measurement not in 10 mM glucose for 5 min but in solutions of various concentrations of glucose, stachyose and adenine for 5 min. Yeast cells which are not incubated in solutions of these substances before the measurement act as control. The following table indicates the extent of activation of sucrose transport with various concentrations of glucose, stachyose and adenine compared with the control.

## CN [Methylamine]
[1]; pH 7, [14C]-methylamine uptake, tested substance 500 μM, read-out: Activity relative to the control [%]
  remaining activity at 500 µM: 40%
[2]
  Herbicidal activity on plants: herbicidal activity on plants

## O=C(O)C1CCN1 (stereo not shown) [Azetidine-2-carboxylate]
[3]; L-[14C]-proline uptake, tested substance 10 mM
  remaining activity at 10000 µM: 62%

## O=C(O)[C@H]1CCCN1 [D-Proline]
[3]
  remaining activity at 10000 µM: 90%

## O=[N+]([O-])c1ccc(O)c([N+](=O)[O-])c1 [DNP]
[1]; pH 7, read-out: Activity relative to the control [%]
  remaining activity at 100 µM: 18%
[4]; pH 3.8, read-out: Activity relative to the control [%]
  remaining activity at 100 µM: 3%
[3]
  remaining activity at 100 µM: 7.6 ± 1.6%

## O=S(=O)(O)c1cc[c]([Hg][Cl])cc1 [PCMBS]
[5]
  Activity relative to the control [%]: 21%
[2]
  Herbicidal activity on plants: herbicidal activity on plants
[4]; [14C]-sucrose uptake, pH 3.8, tested substance 0.1 mM
  Activity relative to the control [%]: 20%
[6]
  Inhibition of sucrose transport: highly effective transport inhibitors

## OC[C@H]1OC(O)[C@H](O)[C@@H](O)[C@@H]1O (stereo partly shown) [Glucose]
[7]; sucrose transport after 5 min preincubation with the substance at c1 [0.2 mol/l], 200000 µM
  Activity relative to the control [%]: 89 ± 5%
[7]; sucrose transport after 5 min preincubation with the substance at c2 [2 mmol/l]
  Activity relative to the control [%]: 90 ± 3%
